Measurements published in US20160009693A1, “HERBICIDAL COMPOUNDS” (SYNGENTA LIMITED, priority 2013, published 2016).

What was measured:
Type in all cases: in vivo
Conditions in all cases: applied at 1000 g/h, evaluated after 13 days
[1] = tested on: Alopecurus myosuroides (ALOMY); experiment: Herbicidal glasshouse test, pre-emergence, ALOMY
Setaria faberi (SETFA) [2] = experiment: Herbicidal glasshouse test, pre-emergence, SETFA
[3] = tested on: Echinochloa crus-galli (ECHCG); experiment: Herbicidal glasshouse test, pre-emergence, ECHCG
Outline: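 In this pre-emergence glasshouse test, ECHCG seeds sown in pots of standard soil were sprayed one day after sowing with the test material in acetone/water (50:50) containing 0.5% Tween 20. Plants were kept at 24/16° C., 14 hours light, 65% humidity, and watered twice daily. Percentage damage was rated after 13 days on a 1–5 scale.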

Solanum nigrum (SOLNI) [4] = experiment: Herbicidal glasshouse test, pre-emergence, SOLNI
Outline: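 This pre-emergence glasshouse herbicide test used Solanum nigrum sown in standard soil. One day after sowing, pots were sprayed with the compound in acetone/water (50:50) with 0.5% Tween 20. They were then grown at 24/16° C., with 14 hours light and 65% humidity, and watered twice daily. Percentage damage was scored after 13 days on a five point scale, where 5=80-100% and 1=0-19%.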

[5] = tested on: Amaranthus retoflexus (AMARE); experiment: Herbicidal glasshouse test, pre-emergence, AMARE
Outline: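 This pre-emergence glasshouse herbicide test used Amaranthus retoflexus sown in standard soil. After one day of cultivation, an aqueous spray made from the technical ingredient in 50:50 acetone/water with 0.5% Tween 20 was applied. Pots stayed at 24/16° C., 14 hours light, 65% humidity, with twice-daily watering. Damage was rated on a five point scale (1=0-19% up to 5=80-100%).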

[6] = tested on: Ipomoea hederacea (IPOHE); experiment: Herbicidal glasshouse test, pre-emergence, IPOHE
[7] = tested on: Alopecurus myosuroides (ALOMY); experiment: Herbicidal glasshouse test, post-emergence, ALOMY
Setaria faberi (SETFA) [8] = experiment: Herbicidal glasshouse test, post-emergence, SETFA
Outline: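 This post-emergence glasshouse herbicide test used potted Setaria faberi. Plants were cultivated for 8 days under controlled conditions (24/16° C. day/night, 14 hours light, 65% humidity) and then treated with an aqueous spray made from an acetone/water (50:50) solution containing 0.5% Tween 20. After 13 days of further growth with twice-daily watering, damage was rated on a five point scale (5=80-100%; 1=0-19%).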

[9] = tested on: Echinochloa crus-galli (ECHCG); experiment: Herbicidal glasshouse test, post-emergence, ECHCG
Outline: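 In this post-emergence glasshouse test, barnyard grass (ECHCG) was cultivated for 8 days under controlled conditions (24/16° C. day/night, 14 hours light, 65% humidity). It was then sprayed with an aqueous solution of the technical compound in acetone / water (50:50) with 0.5% Tween 20. Plants were kept under the same conditions and watered twice daily. After 13 days, percentage damage was rated on a five point scale (5=80-100%; 1=0-19%).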

Solanum nigrum (SOLNI) [10] = experiment: Herbicidal glasshouse test, post-emergence, SOLNI
[11] = tested on: Amaranthus retoflexus (AMARE); experiment: Herbicidal glasshouse test, post-emergence, AMARE
Outline: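 This post-emergence glasshouse test used AMARE plants raised in standard soil for 8 days under controlled conditions (24/16° C. day/night, 14 hours light, 65% humidity). Foliage was sprayed with formulated compound in acetone/water (50:50) containing 0.5% Tween 20. Plants were then watered twice daily, and after 13 days percentage damage was rated on a five point scale.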

[12] = tested on: Ipomoea hederacea (IPOHE); experiment: Herbicidal glasshouse test, post-emergence, IPOHE

Compound | PRE Application ALOMY, percentage damage (five point scale) [1] | PRE Application SETFA, percentage damage (five point scale) (Setaria faberi (SETFA) [2]) | PRE Application ECHCG, percentage damage (five point scale) [3] | PRE Application SOLNI, percentage damage (five point scale) (Solanum nigrum (SOLNI) [4]) | PRE Application AMARE, percentage damage (five point scale) [5] | PRE Application IPOHE, percentage damage (five point scale) [6] | POST Application ALOMY, percentage damage (five point scale) [7] | POST Application SETFA, percentage damage (five point scale) (Setaria faberi (SETFA) [8]) | POST Application ECHCG, percentage damage (five point scale) [9] | POST Application SOLNI, percentage damage (five point scale) (Solanum nigrum (SOLNI) [10]) | POST Application AMARE, percentage damage (five point scale) [11] | POST Application IPOHE, percentage damage (five point scale) [12]
Cn1nnnc1NC(=O)c1nn(C)c(=O)n(Cc2ccc([N+](=O)[O-])cc2)c1=O [Compound 1.071] | 5 (5=80-100%) | 2 (2=20-39%) | 5 (5=80-100%) | 5 (5=80-100%) | 5 (5=80-100%) | 5 (5=80-100%) | 4 (4=60-79%) | 1 (1=0-19%) | 4 (4=60-79%) | 5 (5=80-100%) | 5 (5=80-100%) | 2 (2=20-39%)
Cn1nnnc1NC(=O)c1nn(C)c(=O)n(Cc2c(Cl)cccc2Cl)c1=O [Compound 1.072] | 5 (5=80-100%) | 2 (2=20-39%) | 5 (5=80-100%) | 5 (5=80-100%) | 5 (5=80-100%) | 3 (3=40-59%) | 4 (4=60-79%) | 4 (4=60-79%) | 4 (4=60-79%) | 5 (5=80-100%) | 5 (5=80-100%) | 4 (4=60-79%)
Cn1nnnc1NC(=O)c1nn(C)c(=O)n(Cc2ccc(F)cc2)c1=O [Compound 1.073] | 5 (5=80-100%) | 1 (1=0-19%) | 5 (5=80-100%) | 5 (5=80-100%) | 5 (5=80-100%) | 5 (5=80-100%) | 2 (2=20-39%) | 2 (2=20-39%) | 3 (3=40-59%) | 5 (5=80-100%) | 5 (5=80-100%) | 5 (5=80-100%)
Cc1cc(C)cc(Cn2c(=O)c(C(=O)Nc3nnnn3C)nn(C)c2=O)c1 [Compound 1.074] | 5 (5=80-100%) | 1 (1=0-19%) | 4 (4=60-79%) | 5 (5=80-100%) | 5 (5=80-100%) | 3 (3=40-59%) | 4 (4=60-79%) | 1 (1=0-19%) | 3 (3=40-59%) | 5 (5=80-100%) | 5 (5=80-100%) | 2 (2=20-39%)
Cc1cc(Cn2c(=O)c(C(=O)Nc3nnnn3C)nn(C)c2=O)ccc1F [Compound 1.075] | 5 (5=80-100%) | 1 (1=0-19%) | 5 (5=80-100%) | 5 (5=80-100%) | 5 (5=80-100%) | 5 (5=80-100%) | 2 (2=20-39%) | 1 (1=0-19%) | 3 (3=40-59%) | 5 (5=80-100%) | 5 (5=80-100%) | 5 (5=80-100%)
